Laboratory results from patent publication US20260001928A1 (CORTERIA PHARMACEUTICALS, priority 2022, published 2026).
*1 amine or outer side, *2 acyl side, *3 side chain or, on linkers, in order; H or OH if unused. Where a SMILES comes first, the peptide text is derived from it. Side-chain parts run from the residue outwards. [ ]: non-standard residue; d: D form. The star is where a group is joined. C18 diacid = O=C(O)CCCCCCCCCCCCCCCCC(=O)*; γGlu = O=C(O)[C@H](CCC(=O)[*:2])N[*:1]; αMeL = CC(C)C[C@](C)(N)C(=O)O; Abu = CC[C@H](N)C(=O)O; Pentanoyl = CCCCC(=O)*; AEEA = NCCOCCOCC(=O)O; Aib = CC(C)(N)C(=O)O

Tests used:
[1] = target: T1, human CRF2a receptor (Homo sapiens, UniProt Q13324); experiment: Activity at human CRF2a receptor, cAMP functional assay in TeloHEAC cells; assay type: cell-based; conditions: TeloHEAC cells stably expressing human CRF2a receptor, relative to urocortin 2 (100 nM = 100%)
T1 construct: expressed in transfected cells; host or cells: TeloHEAC cells
T1 sequence (Q13324 1-411): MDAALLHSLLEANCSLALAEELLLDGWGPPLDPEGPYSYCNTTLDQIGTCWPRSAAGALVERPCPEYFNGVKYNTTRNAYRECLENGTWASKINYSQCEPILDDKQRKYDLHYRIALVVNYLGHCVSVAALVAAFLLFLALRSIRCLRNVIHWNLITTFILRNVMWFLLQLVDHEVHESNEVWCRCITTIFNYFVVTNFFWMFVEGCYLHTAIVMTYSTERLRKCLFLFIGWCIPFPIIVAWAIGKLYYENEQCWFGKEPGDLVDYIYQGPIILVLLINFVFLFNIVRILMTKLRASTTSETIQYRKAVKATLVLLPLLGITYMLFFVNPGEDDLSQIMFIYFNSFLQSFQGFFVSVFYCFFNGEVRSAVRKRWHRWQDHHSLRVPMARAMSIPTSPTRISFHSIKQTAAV
Procedure, shortened: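 cAMP accumulation was measured by HTRF 665/620 nm ratio after 30 min at 37° C compound exposure (16 twofold dilutions) of CRF2a-expressing TeloHEAC cells, 10000/well, in HEPES-buffered HBSS plus IBMX. Activity was normalised to urocortin 2 at 100 nM (100%), and EC50 was the concentration giving half-maximal activation.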

[2] = target: T2, CFR1R receptor (Homo sapiens, UniProt P34998); experiment: Activity at anti-target CFR1R receptor, cAMP assay in CRF1R-overexpression CHO-K1 cells; assay type: cell-based; conditions: 100% = Sauvagine at 100 nM; for EC50: cAMP
T2 construct: host or cells: CHO-K1 (clone 2)
T2 sequence (P34998 24-415): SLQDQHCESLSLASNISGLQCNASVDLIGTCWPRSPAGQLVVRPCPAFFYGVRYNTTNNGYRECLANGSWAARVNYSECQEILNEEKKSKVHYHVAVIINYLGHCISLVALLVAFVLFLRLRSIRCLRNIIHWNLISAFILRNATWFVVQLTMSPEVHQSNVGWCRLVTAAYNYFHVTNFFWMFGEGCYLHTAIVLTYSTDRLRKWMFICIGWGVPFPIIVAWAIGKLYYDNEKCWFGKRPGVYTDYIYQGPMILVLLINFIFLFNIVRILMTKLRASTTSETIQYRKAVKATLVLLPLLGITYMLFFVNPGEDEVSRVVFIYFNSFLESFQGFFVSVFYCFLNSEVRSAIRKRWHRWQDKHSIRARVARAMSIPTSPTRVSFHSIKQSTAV
Procedure, shortened: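 The method mirrors that used with TeloHAEC cells. Here, thawed clone 2 cells seeded at 4000 cells/well are tested, and 100 nM Sauvagine sets the top of the activation scale.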

SMILES | EC50 [1] [nM] | Emax (% I) [2] [% I] | EC50 [2] [nM]
CCCCC(=O)N[C@H](C(=O)N[C@@H](CC(C)C)C(=O)N[C@@H](CO)C(=O)N[C@@H](CC(C)C)C(=O)N[C@@H](CC(=O)O)C(=O)N[C@@H](C(=O)N1CCC[C@H]1C(=O)N[C@H](C(=O)N[C@@H](CCCCN)C(=O)N[C@@H](CC(C)C)C(=O)N[C@@H](CCCCNC(=O)COCCOCCNC(=O)COCCOCCNC(=O)CC[C@H](NC(=O)CCCCCCCCCCCCCCCCC(=O)O)C(=O)O)C(=O)N[C@@H](CCCCN)C(=O)N[C@H](C(=O)N[C@@H](CC(C)C)C(=O)N[C@@H](CC(C)C)C(=O)N[C@@H](CCC(=O)O)C(=O)N[C@@H](CCC(N)=O)C(=O)N[C@@H](CCC(=O)O)C(=O)N[C@@H](CCCCN)C(=O)N[C@@H](CCC(N)=O)C(=O)N[C@@H](CCCCN)C(=O)N[C@@H](CCCCN)C(=O)N[C@@H](CCC(N)=O)C(=O)N[C@@H](CCCNC(=N)N)C(=O)N[C@@H](CCC(=O)O)C(=O)N[C@@H](CCC(N)=O)C(=O)N[C@@H](C)C(=O)N[C@@H](CCC(=O)O)C(=O)N[C@H](C(=O)N[C@@H](CC(N)=O)C(=O)N[C@@H](C)C(=O)N[C@@H](CCC(N)=O)C(=O)N[C@H](C(=O)N[C@@H](CC(C)C)C(=O)N[C@@H](C)C(=O)N[C@@H](CCC(N)=O)C(=O)N[C@H](C(N)=O)C(C)C)[C@@H](C)CC)[C@@H](C)O)[C@@H](C)CC)[C@@H](C)CC)C(C)C)C(C)C [compound 122] (Pentanoyl-VLSLD[dV]PIKLK([AEEA-AEEA-γGlu-C18 diacid])KILLEQEKQKKQREQAETNAQILAQV-NH2) | 0.67 | 5 | > 250
CCCCC(=O)N[C@H](C(=O)N[C@@H](CC(C)C)C(=O)N[C@@H](CO)C(=O)N[C@@H](CC(C)C)C(=O)N[C@@H](CC(=O)O)C(=O)N[C@@H](C(=O)N1CCC[C@H]1C(=O)N[C@H](C(=O)N[C@@H](CCCCN)C(=O)N[C@@](C)(CC(C)C)C(=O)N[C@@H](CCCCNC(=O)COCCOCCNC(=O)COCCOCCNC(=O)CC[C@H](NC(=O)CCCCCCCCCCCCCCCCC(=O)O)C(=O)O)C(=O)N[C@@H](CCCCN)C(=O)N[C@H](C(=O)N[C@@H](CC(C)C)C(=O)N[C@@H](CC(C)C)C(=O)N[C@@H](CCC(=O)O)C(=O)N[C@@H](CCC(N)=O)C(=O)N[C@@H](CCC(=O)O)C(=O)N[C@@H](CCCCN)C(=O)N[C@@H](CCC(N)=O)C(=O)N[C@@H](CCCCN)C(=O)N[C@@H](CCCCN)C(=O)N[C@@H](CCC(N)=O)C(=O)N[C@@H](CCCNC(=N)N)C(=O)N[C@@H](CCC(=O)O)C(=O)N[C@@H](CCC(N)=O)C(=O)N[C@@H](C)C(=O)N[C@@H](CCC(=O)O)C(=O)N[C@H](C(=O)N[C@@H](CC(N)=O)C(=O)NC(C)(C)C(=O)N[C@@H](CCC(N)=O)C(=O)N[C@H](C(=O)N[C@@H](CC(C)C)C(=O)N[C@@H](C)C(=O)N[C@@H](CCC(N)=O)C(=O)N[C@H](C(N)=O)C(C)C)[C@@H](C)CC)[C@@H](C)O)[C@@H](C)CC)[C@@H](C)CC)C(C)C)C(C)C [compound 123] (Pentanoyl-VLSLD[dV]PIK[αMeL]K([AEEA-AEEA-γGlu-C18 diacid])KILLEQEKQKKQREQAETN[Aib]QILAQV-NH2) | 0.7 | 14 | > 250

Compounds with a lower EC50 [1], results first:

EC50 [1] [nM] | Emax (% I) [2] [% I] | EC50 [2] [nM] | SMILES
0.38 | 14 | > 250 | CCCCC(=O)N[C@H](C(=O)N[C@@H](CC(C)C)C(=O)N[C@@H](CO)C(=O)N[C@@H](CC(C)C)C(=O)N[C@@H](CC(=O)O)C(=O)N[C@@H](C(=O)N1CCC[C@H]1C(=O)N[C@H](C(=O)N[C@@H](CCCCN)C(=O)N[C@@](C)(CC(C)C)C(=O)N[C@@H](CCCCNC(=O)COCCOCCNC(=O)COCCOCCNC(=O)CC[C@H](NC(=O)CCCCCCCCCCCCCCCCC(=O)O)C(=O)O)C(=O)N[C@@H](CCCCN)C(=O)N[C@H](C(=O)N[C@@H](CC(C)C)C(=O)N[C@@H](CC(C)C)C(=O)N[C@@H](CCC(=O)O)C(=O)N[C@@H](CCC(N)=O)C(=O)N[C@@H](CCC(=O)O)C(=O)N[C@@H](CCCCN)C(=O)N[C@@H](CCC(N)=O)C(=O)N[C@@H](CCCCN)C(=O)N[C@@H](CCCCN)C(=O)N[C@@H](CCC(N)=O)C(=O)N[C@@H](CCCNC(=N)N)C(=O)N[C@@H](CCC(=O)O)C(=O)N[C@@H](CCC(N)=O)C(=O)N[C@@H](C)C(=O)N[C@@H](CCC(=O)O)C(=O)N[C@H](C(=O)N[C@@H](CC(N)=O)C(=O)N[C@H](C(=O)N[C@@H](CCC(N)=O)C(=O)N[C@H](C(=O)N[C@@H](CC(C)C)C(=O)N[C@@H](C)C(=O)N[C@@H](CCC(N)=O)C(=O)N[C@H](C(N)=O)C(C)C)[C@@H](C)CC)C(C)C)[C@@H](C)O)[C@@H](C)CC)[C@@H](C)CC)C(C)C)C(C)C [compound 124] (Pentanoyl-VLSLD[dV]PIK[αMeL]K([AEEA-AEEA-γGlu-C18 diacid])KILLEQEKQKKQREQAETNVQILAQV-NH2)
0.08 | 11 | > 250 | CC[C@H](NC(=O)[C@H](CC(N)=O)NC(=O)[C@@H](NC(=O)[C@H](CCC(=O)O)NC(=O)[C@H](C)NC(=O)[C@H](CCC(N)=O)NC(=O)[C@H](CCC(=O)O)NC(=O)[C@H](CCCNC(=N)N)NC(=O)[C@H](CCC(N)=O)NC(=O)[C@H](CCCCN)NC(=O)[C@H](CCCCN)NC(=O)[C@H](CCC(N)=O)NC(=O)[C@H](CCCCN)NC(=O)[C@H](CCC(=O)O)NC(=O)[C@H](CCC(N)=O)NC(=O)[C@H](CCC(=O)O)NC(=O)[C@H](CC(C)C)NC(=O)[C@H](CC(C)C)NC(=O)[C@@H](NC(=O)[C@H](CCCCN)NC(=O)[C@H](CCCCNC(=O)CC[C@H](NC(=O)CCCCCCCCCCCCCCCCC(=O)O)C(=O)O)NC(=O)[C@H](CC(C)C)NC(=O)[C@H](CCCCN)NC(=O)[C@@H](NC(=O)[C@@H]1CCCN1C(=O)[C@H](NC(=O)[C@H](CC(=O)O)NC(=O)[C@H](CC(C)C)NC(=O)[C@H](CO)NC(=O)[C@H](CC(C)C)NC(=O)[C@@H](NC(=O)[C@@H](NC(C)=O)[C@@H](C)CC)C(C)C)C(C)C)[C@@H](C)CC)[C@@H](C)CC)[C@@H](C)O)C(=O)N[C@@H](CCC(N)=O)C(=O)N[C@H](C(=O)N[C@@H](CC(C)C)C(=O)N[C@@H](C)C(=O)N[C@@H](CCC(N)=O)C(=O)N[C@H](C(N)=O)C(C)C)[C@@H](C)CC [compound 127] (Ac-IVLSLD[dV]PIKLK([γGlu-C18 diacid])KILLEQEKQKKQREQAETN[Abu]QILAQV-NH2)
0.05 | 20 | > 250 | CC[C@H](C)[C@H](NC(C)=O)C(=O)N[C@H](C(=O)N[C@@H](CC(C)C)C(=O)N[C@@H](CO)C(=O)N[C@@H](CC(C)C)C(=O)N[C@@H](CC(=O)O)C(=O)N[C@@H](C(=O)N1CCC[C@H]1C(=O)N[C@H](C(=O)N[C@@H](CCCCN)C(=O)N[C@@H](CC(C)C)C(=O)N[C@@H](CCCCNC(=O)CC[C@H](NC(=O)CCCCCCCCCCCCCCCCC(=O)O)C(=O)O)C(=O)N[C@@H](CCCCN)C(=O)N[C@H](C(=O)N[C@@H](CC(C)C)C(=O)N[C@@H](CC(C)C)C(=O)N[C@@H](CCC(=O)O)C(=O)N[C@@H](CCC(N)=O)C(=O)N[C@@H](CCC(=O)O)C(=O)N[C@@H](CCCCN)C(=O)N[C@@H](CCC(N)=O)C(=O)N[C@@H](CCCCN)C(=O)N[C@@H](CCCCN)C(=O)N[C@@H](CCC(N)=O)C(=O)N[C@@H](CCCNC(=N)N)C(=O)N[C@@H](CCC(=O)O)C(=O)N[C@@H](CCC(N)=O)C(=O)N[C@@H](C)C(=O)N[C@@H](CCC(=O)O)C(=O)N[C@H](C(=O)N[C@@H](CC(N)=O)C(=O)N[C@@H](C)C(=O)N[C@@H](CCC(N)=O)C(=O)N[C@H](C(=O)N[C@@H](CC(C)C)C(=O)N[C@@H](C)C(=O)N[C@@H](CCC(N)=O)C(=O)N[C@H](C(N)=O)C(C)C)[C@@H](C)CC)[C@@H](C)O)[C@@H](C)CC)[C@@H](C)CC)C(C)C)C(C)C [compound 126] (Ac-IVLSLD[dV]PIKLK([γGlu-C18 diacid])KILLEQEKQKKQREQAETNAQILAQV-NH2)
